Reference: patent US20030068808A1, “Methods for generating antibiotic resistant microbes and novel antibiotics” (priority 2001, published 2003)

What was measured:
Type in all cases: cell-based
[1] = tested on: bacterial cells expressing the vector (pT7Ea); test: Overnight growth in antibiotic, vector control bacteria; settings: overnight at 37° C., 10^7 cells in 5 ml LB broth plus antibiotic at 0.5X MIC
Description: (§1) Titration analysis found the following amounts to be effective in inhibiting bacterial growth in the presence of various compounds.
(§2) The next day, cultures were analyzed for cell growth in the presence or absence of antibiotics.

[2] = tested on: bacterial cells expressing pT7PMS134/V5; test: Overnight growth in antibiotic, MMR defective bacteria expressing PMS2-134; settings: overnight at 37° C., 10^7 cells in 5 ml LB broth plus antibiotic at 0.5X MIC
Description: as §1, §2

BL21 cells = test: Half minimum inhibitory concentrations (MIC) on BL21 cells, titration analysis; settings: half minimum inhibitory concentration on BL21 cells

| SMILES | Cell # (pT7Ea) [1] | Cell # (X10^9) (pT7PMS134V5) [2] | 0.5X MIC (BL21 cells) [µg/mL] |
| --- | --- | --- | --- |
| CC1COc2c(N3CCN(C)CC3)c(F)cc3c(=O)c(C(=O)O)cn1c23 (stereo not shown) [Ofloxacin] | 0 | 1.20 X10^9 | 0.13 |
| CN[C@H](CC(C)C)C(=O)N[C@H]1C(=O)N[C@@H](CC(N)=O)C(=O)N[C@H]2C(=O)N[C@H]3C(=O)N[C@H](C(=O)N[C@H](C(=O)O)c4cc(O)cc(O)c4-c4cc3ccc4O)[C@H](O)c3ccc(c(Cl)c3)Oc3cc2cc(c3O[C@@H]2O[C@H](CO)[C@@H](O)[C@H](O)[C@H]2O[C@H]2C[C@](C)(N)[C@H](O)[C@H](C)O2)Oc2ccc(cc2Cl)[C@H]1O [Vancomycin] | 0 |  | 250.0 |
| CCn1cc(C(=O)O)c(=O)c2cc(F)c(N3CCNCC3)cc21 [Norfloxacin] | 0 | 1.40 X10^9 | 0.13 |
| CCn1cc(C(=O)O)c(=O)c2ccc(C)nc21 [Nalidixic Acid] | 0 | 0.97 X10^9 | 7.10 |
| CN(C)[C@@H]1C(O)=C(C(N)=O)C(=O)[C@@]2(O)C(O)=C3C(=O)c4c(O)cccc4[C@@](C)(O)[C@H]3C[C@@H]12 [Tetracycline] | 0 | 1.10 X10^9 |  |
